Earlier results on one compound are cited in patent US7416898B2, “Chemiluminescent 1,2-dioxetanes” (priority 2002, dated 2008).

For the data set the following is noted: compared with 1,2-dioxetanes (14) and (15).

For `O=C(O)CCCOC1(c2cccc(OP(=O)(O)O)c2)OOC12C1CC3CC(C1)CC2C3` (stereo not shown) [Dioxetane 16], the “solubility in an aqueous system” value is “more soluble in an aqueous system than 1,2-dioxetane (14) and (15)”.
